Experimental data as given in patent US5254533A, “Elfamycin” (Rhone-Poulenc Rorer S.A., priority 1990, dated 1993).
“Also recorded” adds a separate entry of the source.

How the values were obtained:
[1] = tested on: Staphylococcus aureus 209P; experiment: MIC, antibacterial activity (agar dilution); type: cell-based; conditions: Mueller Hinton Agar, about 18 h at about 37° C
[2] = tested on: Staphylococcus aureus S tA 2; experiment: MIC, antibacterial activity (agar dilution); type: cell-based; conditions: STA2, Mueller Hinton Agar, about 18 h at about 37° C
[3] = tested on: Staphylococcus aureus Weichbrodt; experiment: MIC, antibacterial activity (agar dilution); type: cell-based; conditions: Mueller Hinton Agar, about 18 h at about 37° C
Staphylococcus epidermis = experiment: MIC, antibacterial activity (agar dilution); type: cell-based; conditions: Mueller Hinton Agar, about 18 h at about 37° C
Staphylococcus faecalis = experiment: MIC, antibacterial activity (agar dilution); type: cell-based; conditions: Mueller Hinton Agar, about 18 h at about 37° C
Streptococcus bovis 3 = experiment: MIC, antibacterial activity (agar dilution); type: cell-based; conditions: Streptococcus equinus, Mueller Hinton Agar, about 18 h at about 37° C
Streptococcus bovis 5 = experiment: MIC, antibacterial activity (agar dilution); type: cell-based; conditions: Streptococcus equinus, Mueller Hinton Agar, about 18 h at about 37° C
Streptococcus uberis 3 = experiment: MIC, antibacterial activity (agar dilution); type: cell-based; conditions: Mueller Hinton Agar, about 18 h at about 37° C
[4] = tested on: Escherichia coli INRA ECi; experiment: MIC, antibacterial activity (agar dilution); type: cell-based; conditions: Mueller Hinton Agar, about 18 h at about 37° C
[5] = tested on: Bacteroides thetaiotaomicron ATCC 29741; experiment: MIC, antibacterial activity (agar dilution); type: cell-based; conditions: ATCC29741, anaerobic, Mueller Hinton Agar + 2% Fildes, about 48 h at about 37° C
Procedure: Description of the test method used
The strains used, identified in the following table, were thawed at the time of use and then diluted to obtain the following concentrations:
10^7 bacteria/ml for the aerobic bacteria
10^6 bacteria/ml for the anaerobic bacteria.
A stock suspension of the product of formula (II) was prepared at a concentration of 3000 mg/1 in water. It was then diluted with water to obtain concentrations of 300 mg/l, 100 mg/l, 50 mg/l and 25 mg/l.
The culture media were the following:
Mueller Hinton Agar (MHA) for the aerobic cultures
Mueller Hinton Agar (MHA)+2% Fildes (MHA) for the anaerobic cultures.
Each dilution of product was added to 20 mls of the culture medium maintained supercooled at 45° C., and the medium was then poured into Petri dishes. After gentle agitation, the dishes were dried open for about 1 hour at about 37° C.
Inoculation was carried out with a DENLEY multipoint inoculator, which deposited 10^-3 ml of each inoculum per spot.
Reading was performed after about 18 hours of incubation at about 37° C. for the aerobes and about 48 hours at about 37° C. for the anaerobes.
The minimal inhibitory concentration (MIC) was the lowest concentration for which no growth was observed.

[6] = tested on: Klebsiella pneumoniae Caroli; experiment: MIC, antibacterial activity (agar dilution); type: cell-based; conditions: Mueller Hinton Agar, about 18 h at about 37° C
[7] = tested on: Enterobacter cloacae IP 085; experiment: MIC, antibacterial activity (agar dilution); type: cell-based; conditions: IP085, Mueller Hinton Agar, about 18 h at about 37° C
[8] = tested on: Pseudomonas aeruginosa IP A 237; experiment: MIC, antibacterial activity (agar dilution); type: cell-based; conditions: IPA237, Mueller Hinton Agar, about 18 h at about 37° C
Proteus vulgaris IP A272 = experiment: MIC, antibacterial activity (agar dilution); type: cell-based; conditions: IPA272, Mueller Hinton Agar, about 18 h at about 37° C
[9] = tested on: Bacteroides fragilis ATCC 25285; experiment: MIC, antibacterial activity (agar dilution); type: cell-based; conditions: ATCC25285, anaerobic, Mueller Hinton Agar + 2% Fildes, about 48 h at about 37° C
[10] = tested on: Bacteroides melaninogenicus ATCC 15930; experiment: MIC, antibacterial activity (agar dilution); type: cell-based; conditions: Prevotella intermedia, ATCC15930; anaerobic, Mueller Hinton Agar + 2% Fildes, about 48 h at about 37° C
[11] = Use as a growth factor in weaned piglets (Example 5); type: in vivo, weaned Large-White Belgian Landrace crossed piglets; conditions: for Initial weight: start of period 14-28 days; for Index of consumption: consumption/weight gain ratio
[12] = Use as a growth factor in piglets (Example 6); type: in vivo, weaned Large-White Belgian Landrace crossed piglets; conditions: for Final weight: control 24.7
Description: 130 weaned Large-White Belgian Landrace crossed piglets were used. The experiment began 2 weeks after weaning of the animals, i.e. at a mean age of 42 days.
The animals received the experimental feed ad libitum in the form of granules 2.5 mm in diameter.
The animals were weighed at the beginning, middle and end of the experiment. The consumptions were noted every week.
Tables 7, 8 and 9 respectively show the percentage composition and the characteristics of the diets, the percentage composition of the CMV and the percentage composition of the premixes.
The results are shown in Table 10 for the period 0-14 days, Table 11 for the period 14-28 days and Table 12 for the period 0-28 days.

For C/C=C\C=C\C1OC(O)(C(CC)C(=O)NC/C=C/C=C(\C)C(OC)C(C)C2CC(O)C(/C=C/C=C/C=C/C(=O)O)O2)C(O)C(O)C1(C)C (stereo not shown) [formula (II)], the MIC [1] was > 300 µg/mL, the MIC [2] was > 300 µg/mL and the MIC [3] was > 300 µg/mL. For the same compound, the MIC (Staphylococcus epidermis) was > 300 µg/mL, the MIC (Staphylococcus faecalis) was > 300 µg/mL and the MIC (Streptococcus bovis 3) was > 300 µg/mL. The MIC (Streptococcus bovis 5) was 25 µg/mL, the MIC (Streptococcus uberis 3) was 50 µg/mL and the MIC [4] was > 300 µg/mL. For the same compound, the MIC [5] was > 100 µg/mL, the MIC [6] was > 300 µg/mL and the MIC [7] was > 300 µg/mL. For the same compound, the MIC [8] was > 300 µg/mL, the MIC (Proteus vulgaris IP A272) was > 300 µg/mL and the MIC [9] was > 100 µg/mL. The MIC [10] was > 100 µg/mL, the Weight gain ([11]; 40 ppm in feed, 0-14 days, control 329) was 360 g/day and the Consumption ([11]; 40 ppm in feed, 0-14 days, control 614) was 625 g/day. The Weight gain ([11]; 40 ppm in feed, 0-28 days, control 445) was 490 g/day, the Consumption ([11]; 40 ppm in feed, 0-28 days, control 822) was 847 g/day and the Weight gain ([11]; 40 ppm in feed, 14-28 days, control 560) was 620 g/day. The Consumption ([11]; 40 ppm in feed, 14-28 days, control 1031) was 1068 g/day, the “Intermediate Weight” value ([11]; 40 ppm in feed, Table 4, 0-14 days, control 15.3) was 15.8 kg and the “Intermediate Weight” value ([11]; 40 ppm in feed, Table 5, 14-28 days, control 23.1) was 24.5 kg. For the same compound, the “Intermediate Weight” value ([11]; 40 ppm in feed, Table 6, 0-28 days, control 23.1) was 24.5 kg, the Initial weight ([11]; 40 ppm in feed, control 15.3) was 15.8 kg and the “improvement in growth relative to the basic diet” value ([11]; 40 ppm, overall period 0-28 days) was 10%. For the same compound, the “performances of the animals (in words)” value ([11]; 60 ppm compared with the same product at 40 ppm, 0-28 days) was “somewhat behind those observed with the same product at 40 ppm”, the Weight gain ([11]; 60 ppm in feed, 0-14 days, control 329) was 338 g/day and the Consumption ([11]; 60 ppm in feed, 0-14 days, control 614) was 599 g/day. It also gave a Weight gain ([11]; 60 ppm in feed, 0-28 days, control 445) of 463 g/day, a Consumption ([11]; 60 ppm in feed, 0-28 days, control 822) of 812 g/day and a Weight gain ([11]; 60 ppm in feed, 14-28 days, control 560) of 588 g/day. For the same compound, the Consumption ([11]; 60 ppm in feed, 14-28 days, control 1031) was 1026 g/day, the “Intermediate Weight” value ([11]; 60 ppm in feed, Table 4, 0-14 days, control 15.3) was 15.3 kg and the “Intermediate Weight” value ([11]; 60 ppm in feed, Table 5, 14-28 days, control 23.1) was 23.5 kg. The “Intermediate Weight” value ([11]; 60 ppm in feed, Table 6, 0-28 days, control 23.1) was 23.5 kg, the Initial weight ([11]; 60 ppm in feed, control 15.3) was 15.3 kg and the Index of consumption ([11]; 40 ppm in feed, 0-14 days, control 1.88) was 1.77. It also gave an Index of consumption ([11]; 40 ppm in feed, 0-28 days, control 1.85) of 1.73, an Index of consumption ([11]; 40 ppm in feed, 14-28 days, control 1.86) of 1.73 and an Index of consumption ([11]; 60 ppm in feed, 0-14 days, control 1.88) of 1.78. For the same compound, the Index of consumption ([11]; 60 ppm in feed, 0-28 days, control 1.85) was 1.75, the Index of consumption ([11]; 60 ppm in feed, 14-28 days, control 1.86) was 1.74 and the “effect on index of consumption (in words)” value ([11]; overall period 0-28 days) was “improved quite significantly”. The “effect on consumption (in words)” value ([11]; overall period 0-28 days, listed as product II) was “did not bring about a significant improvement in consumption; also recorded: comparable to tylosin”, the Index of consumption ([12]; 10 ppm in feed, 0-14 days, control 1.76) was 1.70 and the Weight gain ([12]; 10 ppm in feed, 0-14 days, control 368) was 418 g/day. The Consumption ([12]; 10 ppm in feed, 0-14 days, control 645) was 694 g/day, the Index of consumption ([12]; 10 ppm in feed, 0-28 days, control 1.80) was 1.72 and the Weight gain ([12]; 10 ppm in feed, 0-28 days, control 474) was 533 g/day. The Consumption ([12]; 10 ppm in feed, 0-28 days, control 852) was 914 g/day, the Index of consumption ([12]; 10 ppm in feed, 14-28 days, control 1.84) was 1.75 and the Weight gain ([12]; 10 ppm in feed, 14-28 days, control 579) was 648 g/day. For the same compound, the Consumption ([12]; 10 ppm in feed, 14-28 days, control 1059) was 1133 g/day, the Final weight ([12]; 10 ppm in feed, Table 11, 14-28 days) was 26.4 kg and the Final weight ([12]; 10 ppm in feed, Table 12, 0-28 days) was 26.4 kg. It also gave an Index of consumption ([12]; 20 ppm in feed, 0-14 days, control 1.76) of 1.61, a Weight gain ([12]; 20 ppm in feed, 0-14 days, control 368) of 430 g/day and a Consumption ([12]; 20 ppm in feed, 0-14 days, control 645) of 689 g/day. For the same compound, the Index of consumption ([12]; 20 ppm in feed, 0-28 days, control 1.80) was 1.69, the Weight gain ([12]; 20 ppm in feed, 0-28 days, control 474) was 547 g/day and the Consumption ([12]; 20 ppm in feed, 0-28 days, control 852) was 927 g/day. It also gave an Index of consumption ([12]; 20 ppm in feed, 14-28 days, control 1.84) of 1.75, a Weight gain ([12]; 20 ppm in feed, 14-28 days, control 579) of 664 g/day and a Consumption ([12]; 20 ppm in feed, 14-28 days, control 1059) of 1164 g/day. The Final weight ([12]; 20 ppm in feed, Table 11, 14-28 days) was 26.8 kg, the Final weight ([12]; 20 ppm in feed, Table 12, 0-28 days) was 26.8 kg and the Index of consumption ([12]; 40 ppm in feed, 0-14 days, control 1.76) was 1.70. It also gave a Weight gain ([12]; 40 ppm in feed, 0-14 days, control 368) of 416 g/day, a Consumption ([12]; 40 ppm in feed, 0-14 days, control 645) of 701 g/day and an Index of consumption ([12]; 40 ppm in feed, 0-28 days, control 1.80) of 1.70. It also gave a Weight gain ([12]; 40 ppm in feed, 0-28 days, control 474) of 532 g/day, a Consumption ([12]; 40 ppm in feed, 0-28 days, control 852) of 900 g/day and an Index of consumption ([12]; 40 ppm in feed, 14-28 days, control 1.84) of 1.70. The Weight gain ([12]; 40 ppm in feed, 14-28 days, control 579) was 648 g/day, the Consumption ([12]; 40 ppm in feed, 14-28 days, control 1059) was 1099 g/day and the Final weight ([12]; 40 ppm in feed, Table 11, 14-28 days) was 26.4 kg. For the same compound, the Final weight ([12]; 40 ppm in feed, Table 12, 0-28 days) was 26.4 kg.
